# Laboratory results: patent publication US20180280349A1, “METHODS OF TREATING CYSTIC FIBROSIS IN PATIENTS WITH RESIDUAL FUNCTION MUTATIONS” (Vertex Pharmaceuticals Incorporated, priority 2017, published 2018)
# Legend:
# [1] = tested on: cystic fibrosis patients with splice and missense mutations; assay: Clinical trial in 248 cystic fibrosis patients with splice and missense (residual function) mutations: placebo, Compound II alone, Compound I and Compound II; type: in vivo, human; conditions: 100 mg Compound I every 24 hours, 150 mg Compound II every 12 hours
# Experimental: A clinical trial was conducted with 248 cystic fibrosis patients with splice and missense mutations. Mutations were selected for the study based on the clinical phenotype (pancreatic sufficiency), biomarker data (sweat chloride), and in vitro responsiveness to tezacaftor/ivacaftor. The patients were assigned to one of three treatment groups: placebo, Compound II alone, and Compound I and Compound II. […] As shown in.
# [2] = tested on: cystic fibrosis patients heterozygous for the F508del mutation and a CFTR residual function mutation; assay: Second clinical trial: eight-week, randomized, double-blind, ivacaftor-controlled, parallel-group study in 150 CF patients; type: in vivo, human; conditions: active comparator treatment period
# Experimental: A second clinical trial was conducted with 150 cystic fibrosis patients aged 12 years and older Who were heterozygous for the F508del mutation and a CFTR residual function mutation. This trial was an eight-week, randomized, double-blind, ivacaftor-controlled, parallel-group study in CF patients. Patients were randomized 1:1 to receive tezacaftor/ivacaftor or ivacaftor following a four-week run in of ivacaftor. The mean ppFEV1 at baseline was 64.3%. The treatment difference between tezacaftor/ivacaftor and ivacaftor-treated patients for absolute change in ppFEV1 (primary endpoint) through Week 8 in the active comparator treatment period was 0.3 percentage points.
# Results for tezacaftor/ivacaftor- and ivacaftor-treated patients were similar for absolute change in ppFEV1, relative change in ppFEV1 and CFQ-R Respiratory Domain Score. In the active comparator treatment period, the mean absolute change in ppFEV 1 was 0.5% in the tezacaftor/ivacaftor group and 0.2% in the ivacaftor group; the mean relative change in ppFEV1 was 1.3% in the tezacaftor/ivacaftor group and 0.5% in the ivacaftor group; and the mean absolute change in the pooled CFQ-R respiratory domain score was 0.7 points in the tezacaftor/ivacaftor group and −2.1 points in the ivacaftor group. There was a reduction in sweat chloride in tezacaftor/ivacaftor-treated patients compared to the ivacaftor group (−5.8 mmol/L).
smiles,measurement,setting,value
"CC(C)(C)c1cc(C(C)(C)C)c(NC(=O)c2c[nH]c3ccccc3c2=O)cc1O [Compound II, N-(2,4-di-tert-butyl-5-hydroxyphenyl)-4-oxo-1,4-dihydroquinoline-3-carboxamide]",increase in CFQ-R score,[1]; after 8 weeks of treatment,9.7 points
same,increase in ppFEV1 (percent predicted forced expiratory volume in one second),[1]; average change from baseline after 4 and 8 weeks of treatment,4.7 percentage points
same,mean absolute change in the pooled CFQ-R respiratory domain score,[2],−2.1 points
same,mean relative change in ppFEV1,[2],0.5%
same,mean absolute change in ppFEV1,[2]; after four-week run in of ivacaftor,0.2%
